Common to all, as to format: in vivo
Assay [1] deals with durée de la réponse postprandiale. As to the kind of experiment: Effects of melatoninergic ligands on the duration of the postprandial response (irregular intestinal motor activity) in the rat. The settings on record: male Wistar rats, 30 min before access to food. As to the method: Chez le rat, la durée de la réponse postprandiale évaluée par l'activité motrice irrégulière intestinale, est plus courte en période d'obscurité que pendant la période diurne et ceci pour une même quantité d'aliments ingérés. Afin de confirmer que cette diminution de la durée pouvait être due à la sécrétion nocturne de mélatonine, le protocole suivant a été réalisé : des rats mâles Wistar adultes habitués à un cycle lumière/obscurité 12h/12h sont implantés sous anesthésie d'électrodes sur la paroi de l'intestin afin d'enregistrer l'activité myoélectrique. Les rats ont un accès limité (30 min) à la nourriture soit pendant la période nocturne soit pendant la période diurne. Les molécules de l'invention sont administrées 30 min avant l'accès à la nourriture. Le paramètre évalués dans ces études est la durée de l'activité irrégulière motrice. Les périodes de complexes myoélectriques ne sont pas prises en compte dans le cas d'induction par la molécule testée.

For assay [2], the system named is complexes myoélectriques intestinaux. In words: Effects of melatoninergic ligands on intestinal myoelectric complexes in the rat (electrodes implanted on the intestinal wall). The settings on record: male Wistar rats. The method, then: Des rats mâles Wistar adultes placés en cycle lumière/obscurité 12h/12h sont implantés sous anesthésie d'électrodes sur la paroi de l'intestin afin d'enregistrer l'activité myoélectrique. Les rats ont un accès limité (30 min) à la nourriture pendant la période diurne.
Les composés de l'invention agonistes mélatoninergiques ou la mélatonine sont administrés par voie intraveineuse à la dose de 1 mg/kg, 10 min avant le repas. […] Ces complexes myoélectriques apparaissent tout d'abord sur le duodénum avec un délai de 50 min puis ils se propagent sur le jéjunum et l'iléon.

In assay [3] the test system is inflammation intestinale induite par l'indométhacine. In words: Indomethacin-induced intestinal inflammation model in the rat. The settings on record: male Wistar rats, 50 mg/kg ip ten minutes before each of two indomethacin doses (7,5 mg/kg sc, 24 h apart). From the text:
L'inflammation intestinale induite par administration d'indométhacine chez le rat est considérée comme un modèle animal physiopathologique présentant des modifications du comportement et de la motricité intestinale similaires à celles observées chez les patients atteints de la maladie de Crohn (Yamada T. et al, 1993, Mechanisms of acute and chronic intestinal inflammation induces by indomethacin, Inflammation, 17-6, 641-62; Gurbuz V. et al, 1999, Role of nitric oxide in indomethacin-induced gastric mucosal dysfunction in the rat, Experimental Physiology, 84, 319-332; Chen K. et al, 1999, Expression of NO II and its role in the experimental small bowel ulceration in rats, Surgery, 126, 553-561).
Des rats mâles Wistar adultes placés en cycle lumière/obscurité 12h/12h sont implantés sous anesthésie d'électrodes sur la paroi de l'intestin afin d'enregistrer l'activité myoélectrique. Les animaux sont divisés en plusieurs groupes.
Le groupe de rats témoins reçoit deux administrations d'indométhacine (7,5 mg/kg sc) espacées de 24 h. Les autres groupes de rats sont prétraités par la mélatonine ou un ligand mélatoninergique (50 mg/kg ip) dix minutes avant les deux administrations d'indométhacine.
Les animaux sont suivis sur le plan comportemental (prise alimentaire), physiologique (aspect du pelage, diarrhées) et motricité intestinale.

For the compound `CCc1ccc2scc(CCNC(C)=O)c2c1` [N-[2-(5-éthyl-1-benzothiophèn-3-yl)éthyl]acétamide], the “durée de la réponse postprandiale nocturne” value in assay [1] (given 5 h after onset of darkness) is “entraîne un allongement de la réponse postprandiale qui devient d'une durée équivalente à la réponse observée le jour”. For the same compound, the “blocage de l'induction des complexes myoélectriques par l'agoniste” value in assay [2] (antagonist pretreatment 2 mg/kg subcutaneous, 30 min before the agonist) is listed as “empêche toute formation de complexe myoélectrique”.

Regarding `COc1ccc2[nH]cc(CCNC(C)=O)c2c1` [mélatonine], in assay [1] (100 µg/kg intravenous, given 4 h after onset of light), the “durée de la réponse postprandiale diurne” value was “réduit la durée de la réponse postprandiale et la ramène à une durée de type nocturne”. For the same compound, the “symptômes de l'inflammation intestinale (diarrhées, perte de poils, prise alimentaire, motricité intestinale)” value in assay [3] is listed as “ne présentent plus de diarrhées, de perte de poils, de diminution de la prise alimentaire et de la motricité intestinale”. For the same compound, the “apparition de complexes myoélectriques pendant la réponse motrice postprandiale” value in assay [2] (1 mg/kg intravenous, 10 min before the meal, daytime feeding (30 min access)) was “induisent l'apparition de complexes myoélectriques pendant la réponse motrice postprandiale”. In assay [2] (1 mg/kg intravenous, 10 min before the meal, complexes then propagate to jejunum and ileum), the “délai d'apparition des complexes myoélectriques sur le duodénum” value came out at 50 min.
